ChEMBL document CHEMBL4507267 (2021)

How the values were obtained:
[1] = target: Serine/threonine-protein kinase PAK 1 (Homo sapiens) (UniProt Q13153); conditions: Compound concentration 1000.0 nM
[2] = target: Macrophage-stimulating protein receptor (Homo sapiens) (UniProt Q04912); conditions: Compound concentration 1000.0 nM
[3] = test system: Mast/stem cell growth factor receptor Kit (Homo sapiens), P10721 [L576P]; conditions: Compound concentration 1000.0 nM
[4] = target: Ribosomal protein S6 kinase alpha-2 (Homo sapiens) (UniProt Q15349); conditions: Compound concentration 1000.0 nM
[5] = target: Receptor-interacting serine/threonine-protein kinase 4 (Homo sapiens) (UniProt P57078); conditions: Compound concentration 1000.0 nM
[6] = target: Muscarinic acetylcholine receptor M4 (Homo sapiens) (UniProt P08173); conditions: Compound concentration 10.0 uM
[7] = test system: Mast/stem cell growth factor receptor Kit (Homo sapiens), P10721 [V559D]; conditions: Compound concentration 1000.0 nM
[8] = target: Ribosomal protein S6 kinase alpha-1 (Homo sapiens) (UniProt Q15418); conditions: Compound concentration 1000.0 nM
[9] = test system: Phosphatidylinositol 4,5-bisphosphate 3-kinase catalytic subunit alpha isoform (Homo sapiens), P42336 [H1047L]; conditions: Compound concentration 1000.0 nM
[10] = target: Serine/threonine-protein kinase SIK2 (Homo sapiens) (UniProt Q9H0K1); conditions: Compound concentration 1000.0 nM
[11] = target: Glycogen synthase kinase-3 beta (Homo sapiens) (UniProt P49841); conditions: Compound concentration 1000.0 nM
[12] = target: cGMP-dependent protein kinase 1 (Homo sapiens) (UniProt Q13976); conditions: Compound concentration 1000.0 nM
[13] = test system: Receptor-type tyrosine-protein kinase FLT3 (Homo sapiens), P36888 [D835V]; conditions: Compound concentration 1000.0 nM
[14] = target: Macrophage colony-stimulating factor 1 receptor (Homo sapiens) (UniProt P07333); conditions: Compound concentration 1000.0 nM
[15] = target: Cyclin-dependent kinase 4 (Homo sapiens) (UniProt P11802); conditions: Compound concentration 1000.0 nM
[16] = target: Serine/threonine-protein kinase 38-like (Homo sapiens) (UniProt Q9Y2H1); conditions: Compound concentration 1000.0 nM
[17] = target: Serine/threonine-protein kinase 35 (Homo sapiens) (UniProt Q8TDR2); conditions: Compound concentration 1000.0 nM
[18] = target: Muscarinic acetylcholine receptor M2 (Homo sapiens) (UniProt P08172); conditions: Compound concentration 10.0 uM
[19] = target: Calcium/calmodulin-dependent protein kinase type 1B (Homo sapiens) (UniProt Q6P2M8); conditions: Compound concentration 1000.0 nM
[20] = test system: Proto-oncogene tyrosine-protein kinase receptor Ret (Homo sapiens), P07949 [V804M]; conditions: Compound concentration 1000.0 nM
[21] = target: Cyclin-dependent kinase 15 (Homo sapiens) (UniProt Q96Q40); conditions: Compound concentration 1000.0 nM
[22] = target: Phosphatidylinositol 4-phosphate 5-kinase type-1 alpha (Homo sapiens) (UniProt Q99755); conditions: Compound concentration 1000.0 nM
[23] = target: Eukaryotic translation initiation factor 2-alpha kinase 1 (Homo sapiens) (UniProt Q9BQI3); conditions: Compound concentration 1000.0 nM
[24] = target: Mast/stem cell growth factor receptor Kit (Homo sapiens) (UniProt P10721); conditions: Compound concentration 1000.0 nM
[25] = target: Bone morphogenetic protein receptor type-1A (Homo sapiens) (UniProt P36894); conditions: Compound concentration 1000.0 nM
[26] = target: Serine/threonine-protein kinase 33 (Homo sapiens) (UniProt Q9BYT3); conditions: Compound concentration 1000.0 nM
[27] = target: Dual specificity protein kinase CLK4 (Homo sapiens) (UniProt Q9HAZ1); conditions: Compound concentration 1000.0 nM
[28] = target: Non-receptor tyrosine-protein kinase TNK1 (Homo sapiens) (UniProt Q13470); conditions: Compound concentration 1000.0 nM
[29] = target: 5'-AMP-activated protein kinase catalytic subunit alpha-1 (Homo sapiens) (UniProt Q13131); conditions: Compound concentration 1000.0 nM
[30] = target: G protein-coupled receptor kinase 4 (Homo sapiens) (UniProt P32298); conditions: Compound concentration 1000.0 nM
[31] = test system: Mast/stem cell growth factor receptor Kit (Homo sapiens), P10721 [V559D,V654A]; conditions: Compound concentration 1000.0 nM
[32] = target: MAP kinase-activated protein kinase 5 (Homo sapiens) (UniProt Q8IW41); conditions: Compound concentration 1000.0 nM
[33] = target: Mitogen-activated protein kinase 12 (Homo sapiens) (UniProt P53778); conditions: Compound concentration 1000.0 nM
[34] = target: Serine/threonine-protein kinase tousled-like 1 (Homo sapiens) (UniProt Q9UKI8); conditions: Compound concentration 1000.0 nM
[35] = target: LIM domain kinase 2 (Homo sapiens) (UniProt P53671); conditions: Compound concentration 1000.0 nM
[36] = target: Atypical kinase COQ8B, mitochondrial (Homo sapiens) (UniProt Q96D53); conditions: Compound concentration 1000.0 nM
[37] = target: Homeodomain-interacting protein kinase 3 (Homo sapiens) (UniProt Q9H422); conditions: Compound concentration 1000.0 nM
[38] = target: Serine/threonine-protein kinase Chk1 (Homo sapiens) (UniProt O14757); conditions: Compound concentration 1000.0 nM
[39] = test system: Hepatocyte growth factor receptor (Homo sapiens), P08581 [Y1235D]; conditions: Compound concentration 1000.0 nM
[40] = target: Macrophage colony-stimulating factor 1 receptor (Homo sapiens) (UniProt P07333); conditions: Compound concentration 1000.0 nM; remark: listed apart in the source
[41] = target: Testis-specific serine/threonine-protein kinase 1 (Homo sapiens) (UniProt Q9BXA7); conditions: Compound concentration 1000.0 nM
[42] = target: Mitogen-activated protein kinase 10 (Homo sapiens) (UniProt P53779); conditions: Compound concentration 1000.0 nM
[43] = target: Mitogen-activated protein kinase kinase kinase 2 (Homo sapiens) (UniProt Q9Y2U5); conditions: Compound concentration 1000.0 nM
[44] = target: Insulin-like growth factor 1 receptor (Homo sapiens) (UniProt P08069); conditions: Compound concentration 1000.0 nM
[45] = target: Death-associated protein kinase 2 (Homo sapiens) (UniProt Q9UIK4); conditions: Compound concentration 1000.0 nM

Macrophage colony-stimulating factor 1 receptor (Homo sapiens), sequence (P07333 whole entry): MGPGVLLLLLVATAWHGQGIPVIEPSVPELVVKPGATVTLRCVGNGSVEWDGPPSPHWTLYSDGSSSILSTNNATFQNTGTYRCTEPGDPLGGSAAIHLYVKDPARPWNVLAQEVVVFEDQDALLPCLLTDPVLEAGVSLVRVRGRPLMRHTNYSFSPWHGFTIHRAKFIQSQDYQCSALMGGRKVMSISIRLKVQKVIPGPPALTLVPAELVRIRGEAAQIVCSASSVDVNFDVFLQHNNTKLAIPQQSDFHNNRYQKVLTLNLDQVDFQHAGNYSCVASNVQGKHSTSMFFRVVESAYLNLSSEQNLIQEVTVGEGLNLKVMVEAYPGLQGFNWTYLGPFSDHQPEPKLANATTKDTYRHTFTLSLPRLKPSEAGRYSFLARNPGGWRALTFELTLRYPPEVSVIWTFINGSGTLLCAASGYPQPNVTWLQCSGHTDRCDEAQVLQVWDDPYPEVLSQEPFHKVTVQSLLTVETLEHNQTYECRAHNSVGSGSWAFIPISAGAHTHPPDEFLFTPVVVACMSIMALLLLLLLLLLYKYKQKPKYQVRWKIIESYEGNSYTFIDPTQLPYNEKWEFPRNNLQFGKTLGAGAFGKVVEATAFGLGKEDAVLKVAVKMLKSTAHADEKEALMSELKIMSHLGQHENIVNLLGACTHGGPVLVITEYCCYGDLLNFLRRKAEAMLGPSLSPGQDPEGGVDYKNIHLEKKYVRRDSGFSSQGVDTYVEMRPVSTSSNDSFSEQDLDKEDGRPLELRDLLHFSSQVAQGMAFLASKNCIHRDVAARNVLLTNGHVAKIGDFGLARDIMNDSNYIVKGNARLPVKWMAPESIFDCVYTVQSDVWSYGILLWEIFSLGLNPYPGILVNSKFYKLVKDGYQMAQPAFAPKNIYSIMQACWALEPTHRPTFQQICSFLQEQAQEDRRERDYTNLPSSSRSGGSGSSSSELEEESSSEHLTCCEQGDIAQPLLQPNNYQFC
Receptor-interacting serine/threonine-protein kinase 4 (Homo sapiens), sequence (P57078 whole entry): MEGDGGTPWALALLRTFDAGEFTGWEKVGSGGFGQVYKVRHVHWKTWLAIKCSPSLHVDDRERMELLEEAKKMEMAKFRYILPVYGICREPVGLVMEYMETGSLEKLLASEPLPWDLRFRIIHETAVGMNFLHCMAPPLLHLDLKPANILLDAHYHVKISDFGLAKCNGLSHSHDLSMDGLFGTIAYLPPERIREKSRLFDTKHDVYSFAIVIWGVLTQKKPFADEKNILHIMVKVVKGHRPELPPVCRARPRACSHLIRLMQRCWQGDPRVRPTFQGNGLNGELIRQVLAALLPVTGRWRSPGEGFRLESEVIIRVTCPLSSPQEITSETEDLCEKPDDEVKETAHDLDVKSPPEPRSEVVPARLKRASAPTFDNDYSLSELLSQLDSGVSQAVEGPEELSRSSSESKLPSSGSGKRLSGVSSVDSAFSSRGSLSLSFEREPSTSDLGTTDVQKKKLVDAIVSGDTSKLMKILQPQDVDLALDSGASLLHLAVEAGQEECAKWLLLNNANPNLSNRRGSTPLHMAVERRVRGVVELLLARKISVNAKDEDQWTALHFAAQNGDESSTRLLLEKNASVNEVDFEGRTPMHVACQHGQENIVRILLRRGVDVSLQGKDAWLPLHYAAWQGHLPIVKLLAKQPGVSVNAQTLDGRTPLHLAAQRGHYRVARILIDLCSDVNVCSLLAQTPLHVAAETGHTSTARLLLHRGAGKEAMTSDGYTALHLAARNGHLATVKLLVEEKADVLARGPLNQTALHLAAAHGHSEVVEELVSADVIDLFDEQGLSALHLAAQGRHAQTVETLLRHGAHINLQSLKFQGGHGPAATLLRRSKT
Non-receptor tyrosine-protein kinase TNK1 (Homo sapiens), sequence (Q13470 whole entry): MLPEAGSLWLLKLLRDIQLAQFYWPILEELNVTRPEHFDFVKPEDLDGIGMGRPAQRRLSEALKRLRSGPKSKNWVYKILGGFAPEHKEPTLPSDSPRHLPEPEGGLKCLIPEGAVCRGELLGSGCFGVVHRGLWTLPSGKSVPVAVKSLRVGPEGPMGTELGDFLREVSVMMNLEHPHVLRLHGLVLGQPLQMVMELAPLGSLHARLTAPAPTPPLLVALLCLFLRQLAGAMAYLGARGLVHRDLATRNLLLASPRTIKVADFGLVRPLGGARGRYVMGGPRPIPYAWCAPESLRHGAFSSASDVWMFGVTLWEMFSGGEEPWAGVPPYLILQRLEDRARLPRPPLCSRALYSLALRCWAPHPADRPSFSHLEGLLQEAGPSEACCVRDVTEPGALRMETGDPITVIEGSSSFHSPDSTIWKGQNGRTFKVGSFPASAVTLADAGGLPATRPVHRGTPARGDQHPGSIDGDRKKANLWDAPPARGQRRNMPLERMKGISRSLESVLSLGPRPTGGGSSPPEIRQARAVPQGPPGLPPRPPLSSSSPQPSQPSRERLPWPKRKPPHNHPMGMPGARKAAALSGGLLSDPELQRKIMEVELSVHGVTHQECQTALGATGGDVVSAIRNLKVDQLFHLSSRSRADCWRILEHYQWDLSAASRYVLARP
Dual specificity protein kinase CLK4 (Homo sapiens), sequence (Q9HAZ1 whole entry, looked up): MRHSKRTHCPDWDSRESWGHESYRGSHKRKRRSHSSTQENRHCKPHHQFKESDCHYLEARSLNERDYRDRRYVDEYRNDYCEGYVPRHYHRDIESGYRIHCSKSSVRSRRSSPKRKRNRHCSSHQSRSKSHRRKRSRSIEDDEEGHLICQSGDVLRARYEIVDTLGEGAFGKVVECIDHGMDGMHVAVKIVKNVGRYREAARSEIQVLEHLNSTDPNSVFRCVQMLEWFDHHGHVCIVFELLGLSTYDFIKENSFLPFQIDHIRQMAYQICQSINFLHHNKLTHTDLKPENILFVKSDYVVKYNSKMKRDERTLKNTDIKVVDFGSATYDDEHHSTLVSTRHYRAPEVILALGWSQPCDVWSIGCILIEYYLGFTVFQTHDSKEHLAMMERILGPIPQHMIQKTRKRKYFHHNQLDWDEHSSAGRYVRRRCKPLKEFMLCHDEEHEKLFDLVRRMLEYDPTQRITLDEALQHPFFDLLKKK
Ribosomal protein S6 kinase alpha-2 (Homo sapiens), sequence (Q15349 whole entry): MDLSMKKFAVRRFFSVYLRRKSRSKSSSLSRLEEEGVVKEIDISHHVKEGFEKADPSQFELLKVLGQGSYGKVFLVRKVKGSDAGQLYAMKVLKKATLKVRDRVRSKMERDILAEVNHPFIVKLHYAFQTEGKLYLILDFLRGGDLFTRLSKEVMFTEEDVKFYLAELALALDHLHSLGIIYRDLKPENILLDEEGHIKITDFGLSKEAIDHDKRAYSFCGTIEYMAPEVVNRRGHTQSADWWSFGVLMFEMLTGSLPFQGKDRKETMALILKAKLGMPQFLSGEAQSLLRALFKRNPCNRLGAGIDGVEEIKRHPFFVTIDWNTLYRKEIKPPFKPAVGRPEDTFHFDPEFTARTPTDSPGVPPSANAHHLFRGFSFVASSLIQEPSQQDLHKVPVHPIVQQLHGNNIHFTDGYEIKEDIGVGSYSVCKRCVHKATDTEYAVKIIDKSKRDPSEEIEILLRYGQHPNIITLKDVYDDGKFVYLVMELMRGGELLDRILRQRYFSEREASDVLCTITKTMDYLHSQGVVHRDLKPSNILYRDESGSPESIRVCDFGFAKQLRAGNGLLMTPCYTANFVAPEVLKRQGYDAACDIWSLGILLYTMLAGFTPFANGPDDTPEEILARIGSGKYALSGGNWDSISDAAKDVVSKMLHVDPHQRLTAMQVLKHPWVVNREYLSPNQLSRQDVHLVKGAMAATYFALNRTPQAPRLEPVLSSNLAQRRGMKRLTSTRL
Ribosomal protein S6 kinase alpha-1 (Homo sapiens), sequence (Q15418 whole entry, canonical isoform): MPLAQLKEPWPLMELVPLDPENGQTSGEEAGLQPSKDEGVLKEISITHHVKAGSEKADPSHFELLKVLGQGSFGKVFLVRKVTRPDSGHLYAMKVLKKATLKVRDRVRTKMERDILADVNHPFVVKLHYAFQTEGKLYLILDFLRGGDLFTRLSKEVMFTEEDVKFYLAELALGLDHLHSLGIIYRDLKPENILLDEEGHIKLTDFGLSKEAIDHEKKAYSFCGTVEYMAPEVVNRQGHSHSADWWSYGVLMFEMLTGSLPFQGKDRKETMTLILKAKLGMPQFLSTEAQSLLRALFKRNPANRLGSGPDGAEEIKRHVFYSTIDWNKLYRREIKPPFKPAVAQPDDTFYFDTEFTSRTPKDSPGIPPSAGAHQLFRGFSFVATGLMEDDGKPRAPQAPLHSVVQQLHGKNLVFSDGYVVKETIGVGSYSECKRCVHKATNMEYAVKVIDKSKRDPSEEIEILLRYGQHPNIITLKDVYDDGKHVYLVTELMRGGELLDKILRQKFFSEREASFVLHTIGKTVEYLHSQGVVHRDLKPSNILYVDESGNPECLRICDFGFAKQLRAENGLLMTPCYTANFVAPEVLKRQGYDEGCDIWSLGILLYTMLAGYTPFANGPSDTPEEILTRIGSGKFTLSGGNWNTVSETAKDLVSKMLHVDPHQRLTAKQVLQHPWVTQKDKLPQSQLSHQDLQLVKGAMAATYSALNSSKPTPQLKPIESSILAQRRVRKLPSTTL
Serine/threonine-protein kinase 38-like (Homo sapiens), sequence (Q9Y2H1 2-464 limits assumed): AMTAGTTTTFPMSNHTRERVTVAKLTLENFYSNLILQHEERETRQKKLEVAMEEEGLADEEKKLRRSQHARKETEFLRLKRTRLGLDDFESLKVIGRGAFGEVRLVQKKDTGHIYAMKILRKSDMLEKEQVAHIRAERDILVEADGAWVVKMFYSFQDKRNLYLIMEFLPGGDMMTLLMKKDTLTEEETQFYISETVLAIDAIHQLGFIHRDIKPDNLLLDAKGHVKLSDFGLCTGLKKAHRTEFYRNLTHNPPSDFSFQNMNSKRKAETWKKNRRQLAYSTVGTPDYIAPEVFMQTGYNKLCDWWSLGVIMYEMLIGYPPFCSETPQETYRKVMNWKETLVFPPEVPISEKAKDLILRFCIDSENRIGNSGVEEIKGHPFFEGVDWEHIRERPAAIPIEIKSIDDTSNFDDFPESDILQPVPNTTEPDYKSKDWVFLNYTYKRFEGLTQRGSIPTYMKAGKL

Cc1c(NC(=O)c2cc(C(N)=O)nc3cc(F)ccc23)c(C(F)(F)F)nn1Cc1ccc(C(C)(C)C)cc1 [BAY-588]
inactive: residual activity [1] 98% | residual activity [2] 80% | residual activity [3] 95% | residual activity [4] 100% | residual activity [5] 100% | inhibition [6] 8.69% | residual activity [7] 95% | residual activity [8] 100% | residual activity [9] 100% | residual activity [10] 100% | residual activity [11] 100% | residual activity [12] 99% | residual activity [13] 100% | residual activity [14] 100% | residual activity [15] 100% | residual activity [16] 89% | residual activity [17] 100% | inhibition [18] 15.3% | residual activity [19] 100% | residual activity [20] 100% | residual activity [21] 100% | residual activity [22] 100% | residual activity [23] 100% | residual activity [24] 99% | residual activity [25] 100% | residual activity [26] 96% | residual activity [27] 100% | residual activity [28] 100% | residual activity [29] 100% | residual activity [30] 100% | residual activity [31] 98% | residual activity [32] 87% | residual activity [33] 56% | residual activity [34] 100% | residual activity [35] 84% | residual activity [36] 70% | residual activity [37] 100% | residual activity [38] 100% | residual activity [39] 84% | residual activity [40] 100% | residual activity [41] 100% | residual activity [42] 100% | residual activity [43] 100% | residual activity [44] 100% | residual activity [45] 76%

Cc1c(NC(=O)c2cc(C(N)=O)nc3cc(F)ccc23)c(C(F)(F)F)nn1Cc1ccc(C#N)cc1 [BAY-876]
inactive: residual activity [1] 100% | residual activity [2] 76% | residual activity [3] 92% | residual activity [4] 85% | residual activity [5] 92% | inhibition [6] -4.15% | residual activity [7] 100% | residual activity [8] 100% | residual activity [9] 88% | residual activity [10] 100% | residual activity [11] 88% | residual activity [12] 100% | residual activity [13] 100% | residual activity [14] 100% | residual activity [15] 81% | residual activity [16] 100% | residual activity [17] 85% | inhibition [18] 25.8% | residual activity [19] 64% | residual activity [20] 100% | residual activity [21] 100% | residual activity [22] 100% | residual activity [23] 100% | residual activity [24] 95% | residual activity [25] 84% | residual activity [26] 80% | residual activity [27] 87% | residual activity [28] 81% | residual activity [29] 86% | residual activity [30] 100% | residual activity [31] 58% | residual activity [32] 84% | residual activity [33] 86% | residual activity [34] 79% | residual activity [35] 95% | residual activity [36] 80% | residual activity [37] 85% | residual activity [38] 75% | residual activity [39] 100% | residual activity [40] 83% | residual activity [41] 95% | residual activity [42] 85% | residual activity [43] 85% | residual activity [44] 100% | residual activity [45] 99%
